# In patent US20200308170A1, “KRAS G12C INHIBITORS” (Mirati Therapeutics, Inc., priority 2017, published 2020):
# Target: KRas G12C (Homo sapiens, UniProt P01116, G12C)
# Assay: Inhibition of KRas G12C in NCI-H358 cells measured by phosphorylated ERK (Phospho-ERK)
# Format: cell-based
# Details: 3 hours, 4 parameter fit, read-out: IC50 (pERK(Thr202/Tyr204) signal normalized with GAPDH)
# Method: Cells were plated in poly-D-Lysine coated 96-well plates at a concentration of 50,000 cells/well and allowed to attach for 8-12 hours. Diluted compounds were then added at a final concentration of 0.5% DMSO. After 3 hours, the medium was removed, 150 μL of 4% formaldehyde was added and the plates were incubated for 20 minutes. The plates were washed with PBS, and permeabilized using 150 μL of ice cold 100% methanol for 10 minutes. Non-specific antibody binding to the plates was blocked using 100 μL Licor Blocking Buffer (Li-Cor Biotechnology, Lincoln Nebr.) for 1 hour at room temperature. Positive control samples and samples lacking cells were parallel processed with test samples as standards.
# The amount Phospho-ERK was determined using an antibody specific for the phosphorylated form of ERK and compared to the amount of GAPDH. […] The plates were incubated for 2 hours at room temperature. The plates were washed with PBS+0.05% Tween 20.
# Secondary antibodies used to visualize primary antibodies were added as follows: Anti-rabbit-680 diluted 1:1000 and Anti-mouse-800 diluted 1:1000 in Licor Block+0.05% Tween 20 and incubated for 1 hour at room temperature. The plates were washed with PBS+0.05% Tween 20. A 100 μL aliquot of PBS was added to each well and the plates were read on a LICOR AERIUS plate reader.
# The pERK(Thr202/Tyr204) signal was normalized with the GAPDH signal and percent of DMSO control values were calculated. IC50 values were generated using a 4 parameter fit of the dose response curve.
# Sequence of KRas G12C (P01116 1-188 isoform P01116-2 G12C): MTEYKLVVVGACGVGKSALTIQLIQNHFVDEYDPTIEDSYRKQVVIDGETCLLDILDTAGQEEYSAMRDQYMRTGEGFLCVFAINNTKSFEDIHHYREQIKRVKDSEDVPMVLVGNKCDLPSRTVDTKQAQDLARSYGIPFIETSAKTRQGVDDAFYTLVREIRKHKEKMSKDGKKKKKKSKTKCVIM
row,IC50 [µM],SMILES
1,1 to 10,"CN1CC(F)(F)C[C@H]1COc1nc2c(c(N3CCN(C(=O)/C=C/CN4CC(F)C4)[C@@H](CC#N)C3)n1)CCN(c1cccc3cccc(Cl)c13)C2 [Example 57, 2-((S)-4-(7-(8-chloronaphthalen-1-yl)-2-(((S)-4,4-difluoro-1-methylpyrrolidin-2-yl)methoxy)-5,6,7,8-tetrahydropyrido[3,4-d]pyrimidin-4-yl)-1-((E)-4-(3-fluoroazetidin-1-yl)but-2-enoyl)piperazin-2-yl)acetonitrile]"
2,0.0001 to 1,"COC/C=C/C(=O)N1CCN(c2nc(OC[C@@H]3CC(F)(F)CN3C)nc3c2CCN(c2cccc4cccc(C)c24)C3)C[C@@H]1CC#N [Example 60, 2-((S)-4-(2-(((S)-4,4-difluoro-1-methylpyrrolidin-2-yl)methoxy)-7-(8-methylnaphthalen-1-yl)-5,6,7,8-tetrahydropyrido[3,4-d]pyrimidin-4-yl)-1-((E)-4-methoxybut-2-enoyl)piperazin-2-yl)acetonitrile]"
3,0.0001 to 1,"C=C(F)C(=O)N1CCN(c2nc(OCC3CCN3C(C)(C)C)nc3c2CCN(c2cccc4cccc(C)c24)C3)C[C@@H]1CC#N (stereo partly drawn) [Example 74, 2-((2S)-4-(2-((1-(tert-butyl)azetidin-2-yl)methoxy)-7-(8-methylnaphthalen-1-yl)-5,6,7,8-tetrahydropyrido[3,4-d]pyrimidin-4-yl)-1-(2-fluoroacryloyl)piperazin-2-yl)acetonitrile]"
4,0.0001 to 1,"C=C(F)C(=O)N1CCN(c2nc(OCC34CCCN3CCC4)nc3c2CCN(c2cccc4cccc(Cl)c24)C3)C[C@@H]1CC#N [Example 105, (S)-2-(4-(7-(8-chloronaphthalen-1-yl)-2-((tetrahydro-1H-pyrrolizin-7a(5H)-yl)methoxy)-5,6,7,8-tetrahydropyrido[3,4-d]pyrimidin-4-yl)-1-(2-fluoroacryloyl)piperazin-2-yl)acetonitrile]"
5,1 to 10,"C=C(F)C(=O)N1CCN(c2nc(OC3CCN(C4CCOCC4)CC3)nc3c2CCN(c2cccc4cccc(Cl)c24)C3)C[C@@H]1CC#N [Example 130, (S)-2-(4-(7-(8-chloronaphthalen-1-yl)-2-((1-(tetrahydro-2H-pyran-4-yl)piperidin-4-yl)oxy)-5,6,7,8-tetrahydropyrido[3,4-d]pyrimidin-4-yl)-1-(2-fluoroacryloyl)piperazin-2-yl)acetonitrile]"
6,0.0001 to 1,"C=C(F)C(=O)N1CCN(c2nc(OC[C@@H]3CCCN3C)nc3c2CCN(c2cccc4ccc(F)c(C)c24)C3)C[C@@H]1CC#N [Example 131, 2-((S)-4-(7-(7-fluoro-8-methylnaphthalen-1-yl)-2-(((S)-1-methylpyrrolidin-2-yl)methoxy)-5,6,7,8-tetrahydropyrido[3,4-d]pyrimidin-4-yl)-1-(2-fluoroacryloyl)piperazin-2-yl)acetonitrile]"
7,0.0001 to 1,C=C(F)C(=O)N1CCN(c2nc(OC[C@@H]3CCCN3C)nc3c2CCN(c2cccc4ccc(F)c(Cl)c24)C3)C[C@@H]1CC#N [Example 133]
8,0.0001 to 1,C=C(F)C(=O)N1CCN(c2nc(OC[C@@H]3CCCN3C)nc3c2CCN(c2cccc4c2CCC4)C3)C[C@@H]1CC#N [Example 135]
9,0.0001 to 1,C=C(F)C(=O)N1CCN(c2nc(OC[C@@H]3CCCN3C)nc3c2CCN(c2cccc4ccc(F)c(F)c24)C3)C[C@@H]1CC#N [Example 136]
10,1 to 10,C=C(F)C(=O)N1CCN(c2nc(OC[C@@H]3CCCN3C)nc3c2CCN(c2cccc4ccc(Cl)c(Cl)c24)C3)C[C@@H]1CC#N [Example 137]
11,0.0001 to 1,"C=C(F)C(=O)N1CCN(c2nc(OCC34CCCN3CCC4)nc3c2CCN(c2cccc4ccc(F)c(Cl)c24)C3)C[C@@H]1CC#N [Example 138, (S)-2-(4-(7-(8-chloro-7-fluoronaphthalen-1-yl)-2-((tetrahydro-1H-pyrrolizin-7a(5H)-yl)methoxy)-5,6,7,8-tetrahydropyrido[3,4-d]pyrimidin-4-yl)-1-(2-fluoroacryloyl)piperazin-2-yl)acetonitrile]"
12,0.0001 to 1,"C=C(F)C(=O)N1CCN(c2nc(OCC3(C)CCCN3C)nc3c2CCN(c2cccc4ccc(F)c(Cl)c24)C3)C[C@@H]1CC#N (stereo partly drawn) [Example 139, 2-((2S)-4-(7-(8-chloro-7-fluoronaphthalen-1-yl)-2-((1,2-dimethylpyrrolidin-2-yl)methoxy)-5,6,7,8-tetrahydropyrido[3,4-d]pyrimidin-4-yl)-1-(2-fluoroacryloyl)piperazin-2-yl)acetonitrile]"
13,0.0001 to 1,C=C(F)C(=O)N1CCN(c2nc(OCC34CCCN3CCC4)nc3c2CCN(c2cccc(F)c2C(F)(F)F)C3)C[C@@H]1CC#N [Example 140]
14,0.0001 to 1,C=C(F)C(=O)N1CCN(c2nc(OCC34CCCN3CCC4)nc3c2CCN(c2cccc(Cl)c2C(F)(F)F)C3)C[C@@H]1CC#N [Example 141]
15,0.0001 to 1,C=C(F)C(=O)N1CCN(c2nc(OCC34CCCN3CCC4)nc3c2CCN(c2cccc(C)c2C)C3)C[C@@H]1CC#N [Example 142]
16,0.0001 to 1,C=C(F)C(=O)N1CCN(c2nc(OCC34CCCN3CCC4)nc3c2CCN(c2cccc4cccc(Br)c24)C3)C[C@@H]1CC#N [Example 143]
17,0.0001 to 1,C=C(F)C(=O)N1CCN(c2nc(OCC34CCCN3CCC4)nc3c2CCN(c2cccc(C)c2C(F)(F)F)C3)C[C@@H]1CC#N [Example 144]
18,1 to 10,C=C(F)C(=O)N1CCN(c2nc(OCC34CCCN3C(=O)CC4)nc3c2CCN(c2cccc4ccc(F)c(Cl)c24)C3)C[C@@H]1CC#N (stereo partly shown) [Example 145]
19,0.0001 to 1,C=C(F)C(=O)N1CCN(c2nc(OCC34CCCN3CCC4)nc3c2CCN(c2cccc4ccccc24)C3)C[C@@H]1CC#N [Example 146]

row,IC50 [µM],SMILES
1,0.0001 to 1,"C=C(F)C(=O)N1CCN(c2nc(OC[C@@H]3CCCN3C(C)C)nc3c2CCN(c2cccc4ccc(F)c(Cl)c24)C3)C[C@@H]1CC#N [Example 147, 2-((S)-4-(7-(8-chloro-7-fluoronaphthalen-1-yl)-2-(((S)-1-isopropylpyrrolidin-2-yl)methoxy)-5,6,7,8-tetrahydropyrido[3,4-d]pyrimidin-4-yl)-1-(2-fluoroacryloyl)piperazin-2-yl)acetonitrile]"
2,1 to 10,"C=C(F)C(=O)N1CCN(c2nc(OCCN(C)CC(F)(F)F)nc3c2CCN(c2cccc4ccc(F)c(Cl)c24)C3)C[C@@H]1CC#N [Example 148, (S)-2-(4-(7-(8-chloro-7-fluoronaphthalen-1-yl)-2-(2-(methyl(2,2,2-trifluoroethyl)amino)ethoxy)-5,6,7,8-tetrahydropyrido[3,4-d]pyrimidin-4-yl)-1-(2-fluoroacryloyl)piperazin-2-yl)acetonitrile]"
3,1 to 10,C=C(F)C(=O)N1CCN(c2nc(OC3CC4(C3)CN(C)C4)nc3c2CCN(c2cccc4ccc(F)c(Cl)c24)C3)C[C@@H]1CC#N [Example 149]
4,0.0001 to 1,C=C(F)C(=O)N1CCN(c2nc(OC3CCN(C(C)C)C3)nc3c2CCN(c2cccc4ccc(F)c(Cl)c24)C3)C[C@@H]1CC#N (stereo partly shown) [Example 150]
5,0.0001 to 1,C=C(F)C(=O)N1CCN(c2nc(OCC34CCCCN3CCC4)nc3c2CCN(c2cccc4ccc(F)c(Cl)c24)C3)C[C@@H]1CC#N (stereo partly shown) [Example 151]
6,1 to 10,C=C(F)C(=O)N1CCN(c2nc(OC3CCCN(C(C)C)C3)nc3c2CCN(c2cccc4ccc(F)c(Cl)c24)C3)C[C@@H]1CC#N (stereo partly shown) [Example 152]
7,1 to 10,C=C(F)C(=O)N1CCN(c2nc(O[C@H]3CCC[C@@H]3N(C)C)nc3c2CCN(c2cccc4ccc(F)c(Cl)c24)C3)C[C@@H]1CC#N [Example 153]
8,1 to 10,C=C(F)C(=O)N1CCN(c2nc(OC3CN4CCC3CC4)nc3c2CCN(c2cccc4ccc(F)c(Cl)c24)C3)C[C@@H]1CC#N (stereo partly shown) [Example 154]
9,0.0001 to 1,C=C(F)C(=O)N1CCN(c2nc(OCC34COCN3COC4)nc3c2CCN(c2cccc4ccc(F)c(Cl)c24)C3)C[C@@H]1CC#N [Example 155]
10,0.0001 to 1,C=C(F)C(=O)N1CCN(c2nc(OCC34CCCN3C[C@H](F)C4)nc3c2CCN(c2cccc4ccc(F)c(Cl)c24)C3)C[C@@H]1CC#N (stereo partly shown) [Example 156]
11,1 to 10,C=C(F)C(=O)N1CCN(c2nc(OC3CN(CCC#N)C3)nc3c2CCN(c2cccc4ccc(F)c(Cl)c24)C3)C[C@@H]1CC#N [Example 157]
12,0.0001 to 1,C=C(F)C(=O)N1CCN(c2nc(OCC(C)N3CCCCC3)nc3c2CCN(c2cccc4ccc(F)c(Cl)c24)C3)C[C@@H]1CC#N (stereo partly shown) [Example 158]
13,0.0001 to 1,C=C(F)C(=O)N1CCN(c2nc(OCCN(CC)CC)nc3c2CCN(c2cccc4ccc(F)c(Cl)c24)C3)C[C@@H]1CC#N [Example 159]
14,0.0001 to 1,C=C(F)C(=O)N1CCN(c2nc(OCC3CC4(CC4)CN3C)nc3c2CCN(c2cccc4ccc(F)c(Cl)c24)C3)C[C@@H]1CC#N (stereo partly shown) [Example 160]
15,0.0001 to 1,C=C(F)C(=O)N1CCN(c2nc(OCC3COCCC34CN(C)C4)nc3c2CCN(c2cccc4ccc(F)c(Cl)c24)C3)C[C@@H]1CC#N (stereo partly shown) [Example 161]
16,0.0001 to 1,C=C(F)C(=O)N1CCN(c2nc(OCC3CN(C)CCC34CN(C)C4)nc3c2CCN(c2cccc4ccc(F)c(Cl)c24)C3)C[C@@H]1CC#N (stereo partly shown) [Example 162]
17,1 to 10,C=C(F)C(=O)N1CCN(c2nc(OCCn3ccnc3)nc3c2CCN(c2cccc4ccc(F)c(Cl)c24)C3)C[C@@H]1CC#N [Example 163]
18,1 to 10,C=C(F)C(=O)N1CCN(c2nc(OCC(C)N3C[C@@H](C)O[C@@H](C)C3)nc3c2CCN(c2cccc4ccc(F)c(Cl)c24)C3)C[C@@H]1CC#N (stereo partly shown) [Example 164]
